Laboratory results published in US8187278B2, “Photodynamic cellular and acellular organism eradication utilizing a photosensitive material and benzalkonium chloride” (Advanced Photodynamic Technologies, Inc., priority 1998, dated 2012).
Where two headings read alike, the source gives them in different places.

Assays:
[1] = test system: several species of bacteria; assay: photoeradication using methylene blue mediated PDT and the surfactant benzalkonium chloride (FIG. 2), qualitative colony count; type: cell-based; conditions: diode laser about 664 nm, 100 mw/cm^2, 30 to 40 J/cm^2; methylene blue 0 to 100 μg/ml, benzalkonium chloride 0 to 0.01%; topically applied
Source text: One particular treatment protocol according to the present invention utilizes the photosensitive material methylene blue and surfactant benzalkonium chloride. Benzalkonium chloride concentrations from 0.001% to 0.5% have been identified as advantageous in the destruction of certain microorganisms, such as Candida albicans, Escherechia coli, Pseudomonas aeruginosa, Staphylococcus aureus, Klebsellia, Serratia,Haemophilus influenza, and Streptococcus pneumoniae. Reference may be made to FIG. 2, which illustrates a schedule of investigation results. […] The laser used for illumination was a diode laser. Methylene blue concentrations ranged from 0 to 100 μg/ml. Benzalkonium chloride concentrations ranged from 0 to 0.01%. The combined solution was topically applied at the cell site. A light dosage rate was 100 mw/cm^2. Light dosages ranged from 30 to 40 J/cm^2. A qualitative colony count relates particular colony counts to an associated score.

[2] = cited from earlier work
[3] = cited from earlier work; remark: listed apart in the source

Compound | sensitization of bacteria to killing by laser irradiation [1] | toxic effects on administration in high doses ([2]; humans, orally and intravenously, high doses) | tissue toxicity ([2]; in vivo) | yield of the singlet oxygen generation ([3]; pH 5) | yield of the singlet oxygen generation ([3]; pH 9)
CN(C)c1ccc2nc3ccc(=[N+](C)C)cc-3sc2c1 [methylene blue] | alone neither the surfactant nor the photosensitizing agent sensitized the bacteria to killing by laser irradiation | without any toxic effects | very low tissue toxicity | 0.2 | 0.94
alkyl dimethyl benzylammonium chloride [benzalkonium chloride] | alone neither the surfactant nor the photosensitizing agent sensitized the bacteria to killing by laser irradiation | – | – | – | –
